Like-named read-outs stand apart in the source and are kept apart here.
What was measured:
[1] = system: E. coli ATCC 10536; assay: BCT test (bacterial contact time), 45 s, log reduction / effect fraction; CI by Compusyn; format: cell-based, Escherichia coli; details: Escherichia coli, ATCC10536, 45 s; for log reduction at […] strength: dose […] w/v
Outline: (§1)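 Perfume ingredients, alone or combined, in ethanol were mixed 1:1 with ~1×10^8 CFU/mL log-phase bacteria in TSB for the stated contact time. Survivors were estimated by serial dilution and OD600 growth at 37 °C; log reduction versus ethanol control. CI from effect fractions via Compusyn (<0.9 synergy, >1.0 antagonism).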

[2] = system: S. haemolyticus 114126; assay: BCT test (bacterial contact time), 120 s, log reduction / effect fraction; CI by Compusyn; format: cell-based; details: Staphylococcus haemolyticus, 114126, 2 min; for log reduction at 0.1 % strength: dose 0.1% w/v; for log reduction at 0.2 % strength: dose 0.2% w/v
Outline: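 S. haemolyticus 114126 (skin isolate), grown to OD600 1-2 in BHI-TW80 and resuspended at 1-5×10^8 CFU/mL, was mixed 1:1 with ethanolic perfume compositions or ethanol alone for 45, 60 or 120 s. Viable counts came from serial-dilution regrowth (37 °C, turbidity OD600), giving log reduction versus ethanol control; CI was computed from concentration–effect fraction pairs.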

[3] = system: S. aureus ATCC 6538; assay: BCT test (bacterial contact time), 60 s, log reduction / effect fraction; CI by Compusyn; format: cell-based, Staphylococcus aureus; details: Staphylococcus aureus, ATCC6538, 1 min, in 25% EtOH
Outline: as §1

[4] = system: Salmonella enterica ATCC 10708; assay: as above; format: cell-based; details: Salmonella enterica, ATCC10708, 1 min
Outline: as §1

[5] = system: Pseudomonas aeruginosa ATCC 15442; assay: as above; format: cell-based; details: Pseudomonas aeruginosa, ATCC15442, 1 min, BCT 60 s, in 25% EtOH; for log reduction at 0.2 % strength: Dose 0.2 % w/v
Outline: as §1

## CC(C=O)Cc1ccc2c(c1)OCO2 (stereo not shown) [Heliopropanal, 3-(1,3-Benzodioxol-5-yl)-2-methylpropanal]
[1]; dose 0.100 % w/v, 45 s, in 20% EtOH
  log reduction at 0.1 % strength: 1
[1]; dose 0.1% w/v, contact 45 s, 20% EtOH
  log reduction at 0.1 % strength: 0.5
[1]; dose 0.120 % w/v, 45 s, in 20% EtOH
  log reduction at 0.12 % strength: 2.1
[1]; dose 0.12% w/v, contact 45 s, 20% EtOH
  log reduction at 0.12 % strength: 1.1
[1]; dose 0.140 % w/v, 45 s, in 20% EtOH
  log reduction at 0.14 % strength: 4.3
[1]; dose 0.14% w/v, contact 45 s, 20% EtOH
  log reduction at 0.14 % strength: 3.1
[1]; dose 0.160 % w/v, 45 s, in 20% EtOH
  log reduction at 0.16 % strength: 7.3
[1]; dose 0.16% w/v, contact 45 s, 20% EtOH
  log reduction at 0.16 % strength: 7
[1]; 45 s, in 20% EtOH
  log reduction at […] strength: 7.3
[1]; contact 45 s, 20% EtOH
  log reduction at […] strength: 7.4
[2]
  log reduction at 0.175 % strength: 0.1
  log reduction at 0.25 % strength: 0.3
  log reduction at 0.3 % strength: 1.5
  log reduction at 0.4 % strength: 3.2
  log reduction at 0.45 % strength: 5.2
[3]; Dose 0.15 % w/v, BCT 60 s
  log reduction at 0.15 % strength: 0.4
[3]; Dose 0.175 % w/v, BCT 60 s
  log reduction at 0.175 % strength: 0.4
[3]; Dose 0.200 % w/v, BCT 60 s
  log reduction at 0.2 % strength: 1.3
[3]; Dose 0.225 % w/v, BCT 60 s
  log reduction at 0.225 % strength: 3.5
[3]; Dose 0.25 % w/v, BCT 60 s
  log reduction at 0.25 % strength: 7.3
[3]; dose 0.150 % w/v, 60 s
  log reduction at 0.15 % strength: 0.4
[3]; dose 0.200 % w/v, 60 s
  log reduction at 0.2 % strength: 1.2
[3]; dose 0.225 % w/v, 60 s
  log reduction at 0.225 % strength: 4.2
[3]; dose 0.250 % w/v, 60 s
  log reduction at 0.25 % strength: 7
[3]; dose 0.300 % w/v, 60 s
  log reduction at 0.3 % strength: 7.3
[4]
  log reduction at 0.05 % strength: 0
  log reduction at 0.1 % strength: 0.8
  log reduction at 0.12 % strength: 2.9
  log reduction at 0.13 % strength: 3.9
  log reduction at 0.14 % strength: 5.5
[5]; Dose 0.175 % w/v
  log reduction at 0.175 % strength: 4.8
[5]
  log reduction at 0.2 % strength: 7.2
[5]; Dose 0.25 % w/v
  log reduction at 0.25 % strength: 7.4

## CC1=CCC(C(C)(C)O)CC1 (stereo not shown) [Terpineol Ord, 2-(4-Methylcyclohex-3-en-1-yl)propan-2-ol]
[1]; dose 0.100 % w/v, 45 s, in 20% EtOH, read-out: Log reduction
  log reduction at 0.1 % strength: 0.1
[1]; dose 0.110 % w/v, 45 s, in 20% EtOH
  log reduction at 0.11 % strength: 0.3
[1]; dose 0.125 % w/v, 45 s, in 20% EtOH
  log reduction at 0.125 % strength: 1.3
[1]; dose 0.150 % w/v, 45 s, in 20% EtOH
  log reduction at 0.15 % strength: 3.8
[1]; dose 0.200 % w/v, 45 s, in 20% EtOH
  log reduction at 0.2 % strength: 7.4
[2]; contact 120 s, 25% EtOH
  log reduction at 0.1 % strength: -0.1
  log reduction at 0.2 % strength: 1.9
[2]; dose 0.25% w/v, contact 120 s, 25% EtOH, read-out: Log reduction
  log reduction at 0.25 % strength: 5.8
[2]; dose 0.3% w/v, contact 120 s, 25% EtOH, read-out: Log reduction
  log reduction at 0.3 % strength: 7.4
[2]; dose 0.4% w/v, contact 120 s, 25% EtOH, read-out: Log reduction
  log reduction at 0.4 % strength: 7.4
[3]; dose 0.125 % w/v, 60 s
  log reduction at 0.125 % strength: 0.8
[3]; dose 0.150 % w/v, 60 s, read-out: Log reduction
  log reduction at 0.15 % strength: 2.8
[3]; dose 0.175 % w/v, 60 s, read-out: Log reduction
  log reduction at 0.175 % strength: 4.8
[3]; dose 0.200 % w/v, 60 s, read-out: Log reduction
  log reduction at 0.2 % strength: 6.2
[3]; dose 0.250 % w/v, 60 s, read-out: Log reduction
  log reduction at 0.25 % strength: 7.3
[4]; Dose 0.1 % w/v, BCT 60 s, in 25% EtOH, read-out: Log reduction
  log reduction at 0.1 % strength: 0.8
[4]; Dose 0.10 % w/v, BCT 60 s, in 25% EtOH, read-out: Log reduction
  log reduction at 0.1 % strength: 5.4
[4]; Dose 0.1375 % w/v, BCT 60 s, in 25% EtOH
  log reduction at 0.1375 % strength: 7.7
[4]; Dose 0.15 % w/v, BCT 60 s, in 25% EtOH
  log reduction at 0.15 % strength: 7.7
[5]; Dose 0.125 % w/v
  log reduction at 0.125 % strength: 4.4
[5]; Dose 0.135 % w/v
  log reduction at 0.135 % strength: 4.3
[5]; Dose 0.15 % w/v
  log reduction at 0.15 % strength: 6.6
[5]; read-out: Log reduction
  log reduction at 0.2 % strength: 7.6

## CC(CCO)CCc1ccccc1 (stereo not shown) [Phenylhexanol, 3-methyl-5-phenyl-1-pentanol]
[1]; dose 0.02% w/v, contact 45 s, 20% EtOH
  log reduction at 0.02 % strength: 0
[1]; dose 0.03% w/v, contact 45 s, 20% EtOH
  log reduction at 0.03 % strength: 0
[1]; dose 0.035% w/v, contact 45 s, 20% EtOH
  log reduction at 0.035 % strength: 1.1
[1]; dose 0.04% w/v, contact 45 s, 20% EtOH
  log reduction at 0.04 % strength: 2.4
[1]; dose 0.05% w/v, contact 45 s, 20% EtOH
  log reduction at 0.05 % strength: 7.2
[2]; contact 120 s, 25% EtOH
  log reduction at 0.1 % strength: 1.2
  log reduction at 0.2 % strength: 7.3
[2]; dose 0.125% w/v, contact 120 s, 25% EtOH
  log reduction at 0.125 % strength: 3.9
[2]; dose 0.15% w/v, contact 120 s, 25% EtOH
  log reduction at 0.15 % strength: 6.1
[2]; dose 0.175% w/v, contact 120 s, 25% EtOH, read-out: Log reduction
  log reduction at 0.175 % strength: 6.9
[3]; dose 0.050 % w/v, 60 s
  log reduction at 0.05 % strength: 1
[3]; dose 0.060 % w/v, 60 s
  log reduction at 0.06 % strength: 3.3
[3]; dose 0.070 % w/v, 60 s
  log reduction at 0.07 % strength: 6.7
[3]; dose 0.080 % w/v, 60 s
  log reduction at 0.08 % strength: 7
[3]; dose 0.090 % w/v, 60 s
  log reduction at 0.09 % strength: 7.5
[4]; Dose 0.045 % w/v, BCT 60 s, in 25% EtOH
  log reduction at 0.045 % strength: 7.9
[5]; Dose 0.05 % w/v
  log reduction at 0.05 % strength: 3.7
[5]; Dose 0.06 % w/v
  log reduction at 0.06 % strength: 5.3
[5]; Dose 0.07 % w/v
  log reduction at 0.07 % strength: 7.1
[5]; Dose 0.08 % w/v
  log reduction at 0.08 % strength: 7.5

From US12419305B2, “Antimicrobial compositions” (Firmenich SA, priority 2018, dated 2025)
